Assay results as given in patent US8569279B2, “Method for modulating claudin mediated functions” (Sucampo AG, priority 2008, dated 2013).

What was measured:
[1] = test system: epithelial tight junction, mouse intestine (jejunum mucosa); test: Tissue conductance and dilution potentials in normal mouse intestines after Compound A in drinking water; assay type: in vivo; details: male C57BL/6 mice, 10 μM in drinking water for 7 to 14 days, jejunum mucosa in chamber, FIG. 1
Experimental: (Method) Male C57BL/6 mice (7-8 weeks old) were administered with 10 μM Compound A in the drinking water and fed standard diet for 7 to 14 days. During the period, the mice could drink the water freely. At the conclusion of this period, the mice were sacrificed and the intestines were removed. Approximately 5 cm sections were cut from tip of the jejunum. The intestine section was opened from ventral side, and then it was washed several Limes with Ringer solution. The mucosa of the intestine was carefully stripped from the serosa using forceps. The mucosa was mounted in a standard chamber (5 mm in diameter of exposed surface area) and bathed with buffer solution. Transepithelial short-circuit current (Isc) was measured and total tissue conductance was determined by measuring the current deflections resulting from a 1 mV/min transepithelial pulse and applying Ohm's law. When stable measurement of Isc was achieved, the buffer solution was replaced with potassium-free solution. The solution in the luminal bath were then replaced with the solution containing […], 150 mM LiCl, 150 mM KCl, 75 mM MgCl2 and 75 mM CaCl2, in turn, and dilution potentials in each solution were measured.

[2] = test system: claudin-15 protein; test: Expression of claudin proteins in mouse intestine (immunofluorescence staining); assay type: in vivo; details: 10 μM in drinking water for 7 to 14 days, immunofluorescence staining of frozen slices, FIG. 2
Experimental: (Method) Treatment of mice and removal of intestine were conducted by similar way mentioned above. The removed intestine was frozen in liquid nitrogen and frozen slices were prepared. Expressions and intracellular distribution of claudin-15 protein were determined with immunofluorescence staining. […] (Conclusion) Continuous administration of Compound A caused expression changes of tight junction proteins, such as the decrease of claudin-15 which induces changes of electrophysiological property of the tight junction. Decrease of the expression of claudin-15 in the tight junction resulted to enhance the tightness of the tight junction and strengthen the epithelial sheet against toxic substances.

[3] = test system: skin ulcer and/or bedsore animal model, db/db mice; test: Skin ulcer healing in genetically-diabetic mice (db/db mice); assay type: in vivo, mouse; details: topical twice a day for 12 days; for Ulcer area, %: Day 13 relative to Day 1, mean ± standard error, control 70.0 ± 5.7
Source text: Female BKS.Cg−+Lepr^db/+Lepr^db/Jcl mice (db/db mice, SPF; CLEA Japan, Inc.), genetically-diabetic mice, were used for the present study. After the removal of the dorsal hair, the skin covering an area of 1.5×1.5 cm centered on the dorsal median was excised using ophthalmic scissors under anesthesia to make a skin ulcer and/or bedsore animal model. Then the excised skin area (ulcer area) was covered with porous film dressing measuring 4×4 cm. The dosing preparation was applied to the ulcer area at a dosage volume of 0.1 mL per site. The application was performed twice a day for 12 days from the day of preparation of the ulcers. Compound B: (−)-7-{(2R,4aR,5R,7aR)-2-[(3S)-1,1-difluoro-3-methylpentyl]-2-hydroxy-6-oxooctahydrocyclopenta[b]pyran-5-yl}heptanoic acid at 10 or 30 micro-g/site was applied to the ulcer per time. The same volume of the vehicle (physiological saline solution containing 1% polysorbate 80: 1% PS80) was applied to the animals in the control group. The day of the start of the application was defined as Day 1. On the Day 1 and Day 13, the frontal edge of the epidermis or the regeneration epidermis of each ulcer was traced on a plastic sheet. The traced ulcer area was measured with an area-line meter. The ulcer area (%) on Day 13 was calculated on the basis of the ulcer area on Day 1. Group mean values with standard errors were calculated for ulcer area (%).

What does the source list for CCCCC(F)(F)[C@@]1(O)CC[C@H]2[C@@H](CC(=O)[C@@H]2CCCCCCC(=O)O)O1 [Compound A, (−)-7-[(2R,4aR,5R,7aR)-2-(1,1-Difluoropentyl)-2-hydroxy-6-oxooctahydrocyclopenta[b]pyran-5-yl]heptanoic acid]?
dilution potential of univalent cations compared to no-treatment group [1]: decrease; total tissue conductance compared to no-treatment group [1]: decrease; expression of claudin-15 protein [2]: decreased

What does the source list for CC[C@H](C)CC(F)(F)[C@@]1(O)CC[C@H]2[C@@H](CC(=O)[C@@H]2CCCCCCC(=O)O)O1 [Compound B, (−)-7-{(2R,4aR,5R,7aR)-2-[(3S)-1,1-difluoro-3-methylpentyl]-2-hydroxy-6-oxooctahydrocyclopenta[b]pyran-5-yl}heptanoic acid]?
ulcer healing as compared to the control group ([3]; 10 and 30 micro-g/site): significantly accelerated the ulcer healing; Ulcer area, % ([3]; 10 micro-g/site): 43.1 ± 4.2 %; Ulcer area, % ([3]; 30 micro-g/site): 41.1 ± 3.1 %
